# Source: patent US9073916B2, “Prodrug forms of kinase inhibitors and their use in therapy” (AUCKLAND UNISERVICES LIMITED, priority 2009, dated 2015)
# Read-outs that look alike come from different tables or passages of the source.
# Experiments:
# erbB2 [1] = molecular target: T1, erbB2 (Homo sapiens, UniProt P04626); test: Isolated enzyme inhibition (Invitrogen Z′-LYTE kinase assay); type: biochemical; settings: 10 μM ATP, duplicate
# erbB4 = erbB4 (Homo sapiens, UniProt Q15303); test: as above; type: biochemical; settings: 10 μM ATP, duplicate
# [2] = Pulse radiolysis (E(1) and fragmentation rate); type: physicochemical; settings: for kfrag. (fragmentation rate constant upon 1-electron reduction): benzyl-type radical formation; for E (1)/V (one-electron reduction potential): determined against methylviologen
# A431 xenografts = test: In vivo efficacy in A431 xenografts
# Experimental: (§1) Specific pathogen-free homozygous female CD-1 nude mice (Charles River Laboratories, Wilmington, Mass.) were inoculated subcutaneously with a single cell suspension of A431 cells (5×10^6 cells/100 pt; right flank). When A431 tumour xenografts were established (typically 6-10 days) mice were randomized to treatment groups. All compounds were prepared in lactate buffer (pH4). Mice were dosed by intraperitoneal injection (0.01-0.03 ml/g) using the stated schedules and dose levels. Tumour size and body weights were measured at regular intervals. Tumour volume was calculated as π (length×width^2)/6. […] Differences in RTV^4 were tested for statistical difference by Mann Whitney U test using SigmaStat v3.5.
# SKOV3 xenografts = test: In vivo efficacy in SKOV3 xenografts; design: species or system mice
# Experimental: as §1, with “NIH-III” for “CD-1”, “SKOV3” for “A431”, “(1×10^7” for “(5×10^6”, “μL;” for “pt;”, “50-65” for “6-10”
# as §1, with “NIH-III” for “CD-1”, “SKOV3” for “A431”, “(1×10^7” for “(5×10^6”, “μL;” for “pt;”, “50-65” for “6-10”, “Compounds 42 and 161” for “All compounds”
# A431 cells = test: Cellular growth inhibition (sulforhodamine B)
# erbB1 = erbB1 (Homo sapiens, UniProt P00533); test: Inhibition of erbB1 autophosphorylation in EGF-stimulated intact A431 cells (Western blot)
# H1975 cells = test: Cellular growth inhibition (sulforhodamine B); type: cell-based, Human; settings: Table 9; for IC50: Homo sapiens, NCI-H1975
# Experimental: Human A431, BT474, SKBR3, SKOV3, SW620, H1975 and HT29 carcinoma cells in log phase exponential growth in alpha minimal essential media (αMEM) containing 5% fetal bovine serum (FBS), were harvested by trypsinisation (1× trypsin/EDTA, Gibco Brl), counted, and seeded into 96 well plates (Nunc) at cell densities ranging from 800-1500 cells/well. Half of the cell samples were seeded into plates that were pre-equilibrated and held in an anoxic environment (90% N2, 5% H2, 5% CO2, 37° Q Anaerobic chamber, Coy Laboratory Products). […] At the end of this period the anoxic plates were recovered from the anaerobic camber and held under normoxia in a standard CO2 incubator (37° C.) for 20 hours. All plates were washed free of compound and cells were allowed to proliferate for a further 4 days in αMEM containing 5% FBS+antibiotics. Cells were fixed in trichloroacteic acid (30 min), washed and stained with sulforhodamine B (SRB, 60 min) prior to washing in acidified water. SRB was solubilised and absorption read at 450 nm to calculate cell densities. Inhibition of proliferation was calculated relative to untreated control wells.
# (§2) Human A431, H1975 and SKOV3 carcinoma cells in log phase exponential growth in alpha minimal essential media (αMEM) containing 5% fetal bovine serum (FBS), were harvested by trypsinisation (1× trypsin/EDTA, Gibco Brl), counted, and seeded into 96 well plates (Nunc) at cell densities ranging from 800-1500 cells/well. Half of the cell samples were seeded into plates that were pre-equilibrated and held in an anoxic environment (90% N2, 5% H2, 5% CO2, 37° C.; Anaerobic chamber, Coy Laboratory Products). […] At the end of this period the anoxic plates were recovered from the anaerobic camber and held under normoxia in a standard CO2 incubator (37° C.) for 20 hours. All plates were washed free of compound and cells were allowed to proliferate for a further 4 days in αMEM containing 5% FBS+antibiotics. Cells were fixed in trichloroacteic acid (30 min), washed and stained with sulforhodamine B (SRB, 60 min) prior to washing in acidified water. SRB was solubilised and absorption read at 450 nm to calculate cell densities. Inhibition of proliferation was calculated relative to untreated control wells.
# They were then washed free of drug and incubated for a further 4 days, before being stained for cell survival with sulforhodamine B.
# SKOV3 cells = test: Cellular growth inhibition (sulforhodamine B); type: cell-based, Human; settings: Table 9; for IC50: Homo sapiens, SK-OV-3
# Experimental: as §2
# erbB2 [3] = molecular target: T1, erbB2; test: Inhibition of basal phospho-erbB2 in SKOV3 cells (Western blot); type: cell-based; design: endogenous in cells; host or cells: SKOV3 human ovarian carcinoma cells; settings: Table 8
# From the text: Values are plotted using SigmaPlot 10.
# T1 sequence (P04626 23-1255): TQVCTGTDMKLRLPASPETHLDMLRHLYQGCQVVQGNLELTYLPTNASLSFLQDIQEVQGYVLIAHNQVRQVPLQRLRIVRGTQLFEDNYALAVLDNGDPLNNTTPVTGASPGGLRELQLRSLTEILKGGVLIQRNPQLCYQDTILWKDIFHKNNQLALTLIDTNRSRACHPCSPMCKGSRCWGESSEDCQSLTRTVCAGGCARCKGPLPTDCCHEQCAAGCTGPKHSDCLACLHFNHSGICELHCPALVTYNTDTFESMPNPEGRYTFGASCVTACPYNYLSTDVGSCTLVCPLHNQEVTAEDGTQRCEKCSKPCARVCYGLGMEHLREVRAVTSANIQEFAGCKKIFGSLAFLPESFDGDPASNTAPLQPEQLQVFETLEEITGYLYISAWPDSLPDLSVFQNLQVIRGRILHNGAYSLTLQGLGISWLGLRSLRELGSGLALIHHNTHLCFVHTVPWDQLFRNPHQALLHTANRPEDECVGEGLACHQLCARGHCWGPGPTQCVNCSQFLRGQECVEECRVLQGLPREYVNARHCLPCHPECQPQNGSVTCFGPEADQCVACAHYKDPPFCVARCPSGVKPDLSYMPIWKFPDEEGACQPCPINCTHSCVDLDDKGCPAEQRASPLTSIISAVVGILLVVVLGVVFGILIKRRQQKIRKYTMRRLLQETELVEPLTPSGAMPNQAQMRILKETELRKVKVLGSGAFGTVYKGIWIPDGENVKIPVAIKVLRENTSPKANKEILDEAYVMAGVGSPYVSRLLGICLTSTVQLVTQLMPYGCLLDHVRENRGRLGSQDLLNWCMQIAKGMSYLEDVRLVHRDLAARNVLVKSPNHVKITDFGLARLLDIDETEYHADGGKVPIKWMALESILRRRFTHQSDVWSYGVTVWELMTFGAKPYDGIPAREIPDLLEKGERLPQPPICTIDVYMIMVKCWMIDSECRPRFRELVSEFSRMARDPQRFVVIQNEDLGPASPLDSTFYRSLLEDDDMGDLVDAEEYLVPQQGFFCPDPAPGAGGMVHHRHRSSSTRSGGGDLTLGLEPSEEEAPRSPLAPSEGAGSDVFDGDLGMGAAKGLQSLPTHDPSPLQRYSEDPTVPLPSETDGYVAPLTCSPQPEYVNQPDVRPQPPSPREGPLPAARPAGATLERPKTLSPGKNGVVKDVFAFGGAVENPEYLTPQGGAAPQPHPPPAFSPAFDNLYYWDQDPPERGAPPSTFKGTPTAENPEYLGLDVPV
# Chain of erbB1 (P00533 25-1210): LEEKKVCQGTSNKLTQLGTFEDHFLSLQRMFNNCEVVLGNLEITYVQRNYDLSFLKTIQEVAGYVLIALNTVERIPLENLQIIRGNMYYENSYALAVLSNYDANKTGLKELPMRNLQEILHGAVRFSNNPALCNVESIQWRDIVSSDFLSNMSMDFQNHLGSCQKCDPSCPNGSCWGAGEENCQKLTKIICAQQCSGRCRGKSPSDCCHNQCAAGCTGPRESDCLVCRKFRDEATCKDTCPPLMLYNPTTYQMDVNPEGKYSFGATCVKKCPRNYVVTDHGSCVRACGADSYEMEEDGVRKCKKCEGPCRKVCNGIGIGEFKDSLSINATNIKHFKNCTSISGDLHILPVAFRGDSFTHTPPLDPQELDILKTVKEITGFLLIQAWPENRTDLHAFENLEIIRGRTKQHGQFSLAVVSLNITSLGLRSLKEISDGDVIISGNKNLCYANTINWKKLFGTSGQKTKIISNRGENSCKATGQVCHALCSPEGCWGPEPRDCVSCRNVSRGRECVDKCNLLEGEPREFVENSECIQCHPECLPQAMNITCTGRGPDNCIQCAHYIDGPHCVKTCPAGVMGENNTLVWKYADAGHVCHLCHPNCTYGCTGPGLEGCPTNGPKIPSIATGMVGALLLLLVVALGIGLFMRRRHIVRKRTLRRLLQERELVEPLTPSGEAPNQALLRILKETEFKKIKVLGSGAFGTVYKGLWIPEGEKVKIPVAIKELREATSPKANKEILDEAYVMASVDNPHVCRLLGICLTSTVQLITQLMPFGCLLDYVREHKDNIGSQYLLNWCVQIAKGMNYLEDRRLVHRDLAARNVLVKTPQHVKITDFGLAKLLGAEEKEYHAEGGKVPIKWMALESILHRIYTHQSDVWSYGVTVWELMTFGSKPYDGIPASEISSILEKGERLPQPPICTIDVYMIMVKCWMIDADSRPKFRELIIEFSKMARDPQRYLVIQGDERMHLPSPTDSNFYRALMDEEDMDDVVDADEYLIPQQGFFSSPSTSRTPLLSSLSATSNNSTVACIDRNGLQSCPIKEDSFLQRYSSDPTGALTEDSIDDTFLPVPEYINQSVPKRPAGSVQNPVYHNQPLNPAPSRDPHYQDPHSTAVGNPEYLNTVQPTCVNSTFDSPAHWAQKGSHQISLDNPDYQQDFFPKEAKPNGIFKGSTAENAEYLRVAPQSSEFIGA
# Chain of erbB4 (Q15303 26-1308): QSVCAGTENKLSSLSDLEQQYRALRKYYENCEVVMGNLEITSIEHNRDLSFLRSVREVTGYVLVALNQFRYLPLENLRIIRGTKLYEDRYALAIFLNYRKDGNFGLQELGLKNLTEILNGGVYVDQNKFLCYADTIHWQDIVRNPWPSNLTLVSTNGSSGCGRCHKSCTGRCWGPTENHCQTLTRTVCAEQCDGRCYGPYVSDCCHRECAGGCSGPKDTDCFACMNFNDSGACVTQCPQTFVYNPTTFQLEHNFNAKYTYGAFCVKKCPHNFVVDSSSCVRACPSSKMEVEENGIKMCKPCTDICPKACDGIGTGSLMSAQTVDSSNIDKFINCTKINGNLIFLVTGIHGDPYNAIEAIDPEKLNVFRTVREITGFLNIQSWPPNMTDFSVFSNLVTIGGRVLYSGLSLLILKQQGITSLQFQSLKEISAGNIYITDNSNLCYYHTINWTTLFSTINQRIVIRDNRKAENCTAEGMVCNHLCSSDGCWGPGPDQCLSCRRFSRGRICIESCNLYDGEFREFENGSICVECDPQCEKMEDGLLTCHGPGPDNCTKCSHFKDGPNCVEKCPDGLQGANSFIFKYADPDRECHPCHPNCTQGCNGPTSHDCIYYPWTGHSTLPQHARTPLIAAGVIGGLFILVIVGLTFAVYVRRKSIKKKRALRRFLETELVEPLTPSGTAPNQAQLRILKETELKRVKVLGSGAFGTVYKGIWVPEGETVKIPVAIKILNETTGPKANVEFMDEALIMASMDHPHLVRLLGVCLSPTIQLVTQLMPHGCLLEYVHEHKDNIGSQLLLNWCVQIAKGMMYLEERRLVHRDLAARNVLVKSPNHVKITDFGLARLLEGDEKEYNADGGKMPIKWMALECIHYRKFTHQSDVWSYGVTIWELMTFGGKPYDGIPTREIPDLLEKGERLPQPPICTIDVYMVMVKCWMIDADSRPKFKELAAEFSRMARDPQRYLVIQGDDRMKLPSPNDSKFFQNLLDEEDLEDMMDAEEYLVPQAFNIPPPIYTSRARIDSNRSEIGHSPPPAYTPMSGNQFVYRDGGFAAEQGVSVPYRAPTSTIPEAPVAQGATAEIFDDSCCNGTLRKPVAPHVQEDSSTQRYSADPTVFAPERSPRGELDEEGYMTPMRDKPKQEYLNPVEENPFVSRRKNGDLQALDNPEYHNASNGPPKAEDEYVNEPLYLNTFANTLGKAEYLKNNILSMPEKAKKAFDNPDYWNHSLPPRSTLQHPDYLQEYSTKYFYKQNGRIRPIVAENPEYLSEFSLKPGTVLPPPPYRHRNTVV
smiles,measurement,setting,value
"Cn1cnc([N+](=O)[O-])c1C[N+](C)(C)C/C=C/C(=O)Nc1ccc2ncnc(Nc3cccc(Br)c3)c2c1.[Br-] [Compound 20, (2E)-4-{[4-(3-bromoanilino)-6-quinazolinyl]amino}-N,N-dimethyl-N-[(1-methyl-4-nitro-1H-imidazol-5-yl)methyl]-4-oxo-2-buten-1-ammonium bromide]",IC50,erbB2 [1],112 nM
same,IC50,erbB4,85 nM
same,kfrag. (fragmentation rate constant upon 1-electron reduction),[2],130 ± 10 s⁻¹
same,E (1)/V (one-electron reduction potential),[2],−0.427 V
same,efficacy by growth delay,"A431 xenografts; A431 xenografts, equitoxic dose (63% of single dose MTD), q4dx6, IP",superior efficacy to effector 11
same,tumour growth inhibition (TGI),"A431 xenografts; A431 xenografts, q4dx3 at MTD, IP in lactate buffer",> 210%
same,deaths,"A431 xenografts; A431 xenografts, q4dx6, 63% of single dose MTD",0/12
same,efficacy by growth delay,"SKOV3 xenografts; 133 (20) and 56 (11) umol/kg/dose, q3dx6, IP",superior efficacy to effector 11
same,deaths,"SKOV3 xenografts; q3dx6, 133 (20) and 56 (11) umol/kg/dose",0/7
same,IC50,"A431 cells; read-out: Cellular Growth Inhibition IC50 A431 Anoxic, Table 3, first 4 hours of 24 hour exposure anoxic",78 nM
same,IC50,"A431 cells; read-out: Cellular Growth Inhibition IC50 A431 Oxic, Table 3, 24 hour exposure entirely oxic",2090 nM
same,IC50,"erbB1; read-out: cellular erbB1 autophosphorylation IC50, intact A431 cells",555 nM
"Cn1cnc([N+](=O)[O-])c1C[N+](C)(C)C/C=C/C(=O)Nc1cc2c(Nc3ccc(F)c(Br)c3)ncnc2cn1 [Compound 42, (2E)-4-{[4-(3-bromo-4-fluoroanilino)pyrido[3,4-d]pyrimidin-6-yl]amino}-N,N-dimethyl-N-[(1-methyl-4-nitro-1H-imidazol-5-yl)methyl]-4-oxo-2-buten-1-ammonium bromide]",IC50,"H1975 cells; 24 hour exposure oxic, read-out: Cellular Growth Inhibition IC50 H1975 Oxic",37200 nM
same,IC50,"H1975 cells; first 4 hours anoxic, read-out: Cellular Growth Inhibition IC50 H1975 Anoxic",4220 nM
same,H1975 Deact.,H1975 cells,30 fold
same,H1975 HCR,H1975 cells,10.8 fold
same,IC50,"SKOV3 cells; 24 hour exposure oxic, read-out: Cellular Growth Inhibition IC50 SKOV3 Oxic",35500 nM
same,IC50,"SKOV3 cells; first 4 hours anoxic, read-out: Cellular Growth Inhibition IC50 SKOV3 Anoxic",2850 nM
same,SKOV3 Deact.,SKOV3 cells,42 fold
same,SKOV3 HCR,SKOV3 cells,20.3 fold
same,kfrag. (fragmentation rate constant upon 1-electron reduction),[2],50 ± 10 s⁻¹
same,E (1)/V (one-electron reduction potential),[2],−0.425±0.008 V
same,tumour growth inhibition (TGI),"A431 xenografts; large A431 xenografts, 20 mg/kg/dose, q3dx8, IP",400%
same,tumour growth inhibition (TGI),"A431 xenografts; large A431 xenografts, 40 mg/kg/dose, q3dx8, IP",800%
same,tumour growth inhibition (TGI),"A431 xenografts; large A431 xenografts, 60 mg/kg/dose, q3dx8, IP",786%
same,tumour growth inhibition (TGI),"A431 xenografts; large A431 xenografts, 80 mg/kg/dose, q3dx8, IP",843%
same,efficacy by growth delay,"SKOV3 xenografts; 100 (42) and 31.6 (161) μmol/kg/dose, q3dx9, IP",superior efficacy to compound 161
same,deaths,"SKOV3 xenografts; q3dx9, 100 (42) and 31.6 (161) μmol/kg/dose",0/7
same,IC50,"A431 cells; Homo sapiens, A-431, 4 h, read-out: Cellular Growth Inhibition IC50 A431 Anoxic",75 nM
same,IC50,"A431 cells; Homo sapiens, A-431, 24 h, read-out: Cellular Growth Inhibition IC50 A431 Oxic",1690 nM
same,A431 Deact.,A431 cells; Table 9,56 fold
same,A431 HCR,A431 cells; Table 9,60.0 fold
same,Deact. erbB2 (fold reduction in cellular inhibition relative to the parent kinase inhibitor),erbB2 [3]; SKOV3 cells,35 fold
same,IC50,"erbB2 [3]; basal phospho-erbB2 in SKOV3 cells, read-out: Cellular Enzyme Inhibition IC50 erbB2",212 nM
same,IC50,erbB1,411 nM
same,Deact. erbB1 (fold reduction in cellular inhibition relative to the parent kinase inhibitor),"erbB1; Table 8, A431 cells",82 fold
